Measured values: article PMC6318274, “Lattice engineering enables definition of molecular features allowing for potent small-molecule inhibition of HIV-1 entry” (Nature Communications, 2019)
Where “and” joins values, the source holds several entries; their conditions need not be identical. Equal values may be shown once. Read-outs that look alike come from different tables or passages of the source.

Tested on: HIV-1 Env-pseudoviruses (208-strain panel)
Experiment: microbe, parasite or virus in culture
Type: cell-based
Parameters: Total Neutralized / % Neutralized: concentration or dose not given beside the values
Protocol: Neutralization was measured using single-round-of-infection HIV-1 Env-pseudoviruses and TZM-bl target cells (ARP Cat No. #8129)[44],[45]. Compounds were prepared at 400 μM with 4% DMSO (dimethyl sulfoxide) in PBS (phosphate-buffered saline) and diluted 20 times as the starting concentration for serial dilution in the neutralization assays. […] After incubation at 37 °C for 2 days, infection of target cells was measured by luciferase activity. Neutralization curves were fit by nonlinear regression using a five-parameter hill slope equation[45].

## COc1cnc(-c2csc(C(=O)NCCO)n2)c2[nH]cc(C(=O)C(=O)N3CCC(=C(C#N)c4ccccc4)CC3)c12 [BMS-818251]
  % Neutralized: 99% and 98% and 93% and 83% and 75%
  Total Neutralized: 205 and 204 and 194 and 173 and 155
Human immunodeficiency virus 1, BAL, TZM-bl, BaL.26, clade B, read-out: IC50
  IC50: 0.1 nM
Human immunodeficiency virus 1, HXB2, TZM-bl, HXB2.DG, clade B, read-out: IC50
  IC50: 0.1 nM
Human immunodeficiency virus 1, SC422, TZM-bl, SC422.8, clade B, read-out: IC50
  IC50: 0.2 nM
Human immunodeficiency virus 1, TZM-bl
  IC50: 0.3 nM
Human immunodeficiency virus 1, TZM-bl, 45_01dG5, clade B, read-out: IC50
  IC50: 0.2 nM
Human immunodeficiency virus 1, TZM-bl, 0077.v1.c16, clade C, read-out: IC50
  IC50: 0.2 nM
Human immunodeficiency virus 1, TZM-bl, 89.6.DG, clade B, read-out: IC50
  IC50: 0.1 nM
Human immunodeficiency virus 1, TZM-bl, 96ZM651.02, clade C, read-out: IC50
  IC50: 0.1 nM
Human immunodeficiency virus 1, TZM-bl, 208-strain panel, read-out: Geometric mean IC50
  IC50: 1.5 nM
Human immunodeficiency virus 1, TZM-bl, 208-strain panel, read-out: Median IC50
  IC50: 0.5 nM
Human immunodeficiency virus 1, TZM-bl, 235-47, clade AG, read-out: IC50
  IC50: 0.1 nM
Human immunodeficiency virus 1, TZM-bl, 242-14 (Clade AG), read-out: IC50
  IC50: 0.5 nM
Human immunodeficiency virus 1, TZM-bl, 246-F3.C10.2, clade AC, read-out: IC50
  IC50: 2 nM
Human immunodeficiency virus 1, TZM-bl, 247-23 (Clade D), read-out: IC50
  IC50: 0.5 nM
Human immunodeficiency virus 1, TZM-bl, 0260.v5.c36, clade A, read-out: IC50
  IC50: 1 nM
Human immunodeficiency virus 1, TZM-bl, 263-8, clade AG, read-out: IC50
  IC50: 0.1 nM
Human immunodeficiency virus 1, TZM-bl, 269-12, clade AG, read-out: IC50
  IC50: 662 nM
Human immunodeficiency virus 1, TZM-bl, 271-11, clade AG, read-out: IC50
  IC50: 1240 nM
Human immunodeficiency virus 1, TZM-bl, 286.36, clade C, read-out: IC50
  IC50: 0.1 nM
Human immunodeficiency virus 1, TZM-bl, 288.38, clade C, read-out: IC50
  IC50: 0.2 nM
Human immunodeficiency virus 1, TZM-bl, 0330.v4.c3 (Clade A), read-out: IC50
  IC50: 10 nM
Human immunodeficiency virus 1, TZM-bl, 398-F1.F6.20, clade A, read-out: IC50
  IC50: 11 nM
Human immunodeficiency virus 1, TZM-bl, 426c (Clade C), read-out: IC50
  IC50: 0.6 nM
Human immunodeficiency virus 1, TZM-bl, 0439.v5.c1, clade A, read-out: IC50
  IC50: 0.6 nM
Human immunodeficiency virus 1, TZM-bl, 0815.v3.c3, clade ACD, read-out: IC50
  IC50: 0.1 nM
Human immunodeficiency virus 1, TZM-bl, 00836-2.5, clade C, read-out: IC50
  IC50: 12200 nM
Human immunodeficiency virus 1, TZM-bl, 0921.v2.c14, clade C, read-out: IC50
  IC50: 0.1 nM
Human immunodeficiency virus 1, TZM-bl, 928-28, clade AG, read-out: IC50
  IC50: 46 nM
Human immunodeficiency virus 1, TZM-bl, 001428-2.42, clade C, read-out: IC50
  IC50: 14 nM
Human immunodeficiency virus 1, TZM-bl, 3168.v4.c10, clade C, read-out: IC50
  IC50: 0.1 nM
Human immunodeficiency virus 1, TZM-bl, 3301.v1.c24, clade AC, read-out: IC50
  IC50: 5 nM
Human immunodeficiency virus 1, TZM-bl, 3326.v4.c3, clade CD, read-out: IC50
  IC50: 0.1 nM
Human immunodeficiency virus 1, TZM-bl, 3337.v2.c6, clade CD, read-out: IC50
  IC50: 0.2 nM
Human immunodeficiency virus 1, TZM-bl, 3365.v2.c20, clade A, read-out: IC50
  IC50: 90 nM
Human immunodeficiency virus 1, TZM-bl, 3415.v1.c1, clade A, read-out: IC50
  IC50: 0.4 nM
Human immunodeficiency virus 1, TZM-bl, 3468.v1.c12, clade AD, read-out: IC50
  IC50: 0.5 nM
Human immunodeficiency virus 1, TZM-bl, 3589.v1.c4, clade AC, read-out: IC50
  IC50: 0.2 nM
Human immunodeficiency virus 1, TZM-bl, 3637.v5.c3, clade C, read-out: IC50
  IC50: 0.2 nM
Human immunodeficiency virus 1, TZM-bl, 3718.v3.c11, clade A, read-out: IC50
  IC50: 0.7 nM
Human immunodeficiency virus 1, TZM-bl, 3817.v2.c59, clade CD, read-out: IC50
  IC50: 8 nM
Human immunodeficiency virus 1, TZM-bl, 3873.v1.c24, clade C, read-out: IC50
  IC50: 0.1 nM
Human immunodeficiency virus 1, TZM-bl, 3988.25, clade B, read-out: IC50
  IC50: 0.1 nM
Human immunodeficiency virus 1, TZM-bl, 5768.04, clade B, read-out: IC50
  IC50: 0.3 nM
Human immunodeficiency virus 1, TZM-bl, 6095.v1.c10, clade ACD, read-out: IC50
  IC50: 0.1 nM
Human immunodeficiency virus 1, TZM-bl, 6101.10, clade B, read-out: IC50
  IC50: 0.1 nM
Human immunodeficiency virus 1, TZM-bl, 6322.v4.c1, clade C, read-out: IC50
  IC50: 42 nM
Human immunodeficiency virus 1, TZM-bl, 6405.v4.c34, clade D, read-out: IC50
  IC50: 257 nM
Human immunodeficiency virus 1, TZM-bl, 6471.v1.c16, clade C, read-out: IC50
  IC50: 0.1 nM
Human immunodeficiency virus 1, TZM-bl, 6540.v4.c1, clade AC, read-out: IC50
  IC50: 2 nM
